The text below walks through data of patent publication US9586928B2 (The Scripps Research Institute, priority 2011, dated 2017).

The target in one assay is T1, RORβ (Homo sapiens, UniProt Q92753).
T1 sequence (Q92753 1-470): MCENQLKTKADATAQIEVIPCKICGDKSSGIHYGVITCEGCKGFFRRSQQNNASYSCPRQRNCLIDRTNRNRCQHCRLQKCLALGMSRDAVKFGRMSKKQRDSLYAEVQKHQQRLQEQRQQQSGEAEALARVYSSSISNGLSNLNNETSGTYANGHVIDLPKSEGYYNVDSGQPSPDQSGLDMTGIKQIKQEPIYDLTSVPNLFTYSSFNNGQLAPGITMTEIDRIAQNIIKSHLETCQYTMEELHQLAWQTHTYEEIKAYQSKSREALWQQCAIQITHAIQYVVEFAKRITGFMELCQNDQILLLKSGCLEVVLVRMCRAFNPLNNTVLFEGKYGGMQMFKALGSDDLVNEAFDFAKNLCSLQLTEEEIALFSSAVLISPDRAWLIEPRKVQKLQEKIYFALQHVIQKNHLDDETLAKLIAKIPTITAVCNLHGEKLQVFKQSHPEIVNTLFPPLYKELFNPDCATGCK
In words: Binding of radiolabeled T1317 to RORβ. Conditions: radiolabeled compound.

A further assay deals with EL4 cells. In words: Il17a gene expression in EL4 cells by quantitative real-time PCR. It is filed as cell-based, murine. Particulars: 10 μM, 24 hours. The protocol:
[…]. Cotransfection assays were performed as previously described in HEK293 cells (Gal4 cotransfection assay or IL-17 luciferase reporter)[8]. HEK293 and the mouse lymphoma EL4 (ATCC) cells were maintained in DMEM supplemented with 10% FBS plus antibiotics (penicillin and streptomycin; Invitrogen).
(§1) RNA extraction and QRT-PCR analysis was performed as previously described.

In a further assay the target is T2, LXR (Homo sapiens, UniProt Q13133).
T2 sequence (Q13133 209-447 limits assumed): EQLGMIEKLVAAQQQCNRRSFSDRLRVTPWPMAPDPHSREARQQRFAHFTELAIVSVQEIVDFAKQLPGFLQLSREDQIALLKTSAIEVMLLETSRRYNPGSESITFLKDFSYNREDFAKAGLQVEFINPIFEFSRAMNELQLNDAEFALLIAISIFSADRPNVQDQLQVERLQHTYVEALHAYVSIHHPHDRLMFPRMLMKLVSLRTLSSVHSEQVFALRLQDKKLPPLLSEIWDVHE
In words: Gal4-LXRα / UAS luciferase cotransfection assay. The assay is classed as cell-based. Conditions: Gal4 chimeric cotransfection.

A further assay deals with T regulatory cells. In words: T regulatory cell differentiation of splenocytes (RTPCR, Foxp3 FACS). Conditions: 10 μM. It is filed as cell-based, murine. The protocol: Therefore, the environmental cues associated with the concentration of TGF[…] dictates the balance between TH17 and T regulatory cell differentiation. In light of the reciprocal relationship between these two cell types, we assessed whether SR1555 affected the development of T regulatory cells in vitro. Splenocytes were cultured under T regulatory cell polarizing conditions (TGFβ and IL-2) for 3 days. […] To determine whether the gene expression data would correlate with protein expression, we again cultured splenocytes for 5 days under T regulatory cell polarizing conditions in the presence of DMSO or SR1555 and examined the expression of Foxp3 by intracellular cytokine FACS analysis.
Splenocytes were differentiated under the following conditions: iTreg-10 μg/mL anti-IFNγ, 10 μg/mL anti-IL-4, and 2 ng/mL TGFβ (R&D Systems); 20 ug/mL anti-IFNγ, 20 ug/mL anti-IL-4, 1 ng/mL TGFβ, and 10 ng/mL IL-6 (R&D Systems) for TH17 conditions. All cultures were stimulated with 1 μg/mL anti-CD3 (eBiosciences) and 1 μg/mL anti-CD28 (eBiosciences). Four to five days after activation, all cells were restimulated with 5 ng/mL phorbol-12-myristate-13-acetate (PMA) (Sigma) and 500 ng/mL ionomycin (Sigma) for 2 hours with the addition of GolgiStop (BD Bioscience) for an additional 2 hours before intracellular staining. Cells were cultured in RPMI 1640 medium (Invitrogen) with 10% FBS and antibiotics.
as §1

Assay [1] addresses T3, RORα (Homo sapiens, UniProt P35398).
T3 construct: expressed in transfected cells; host or cells: HEK293T
T3 sequence (P35398 272-510 limits assumed): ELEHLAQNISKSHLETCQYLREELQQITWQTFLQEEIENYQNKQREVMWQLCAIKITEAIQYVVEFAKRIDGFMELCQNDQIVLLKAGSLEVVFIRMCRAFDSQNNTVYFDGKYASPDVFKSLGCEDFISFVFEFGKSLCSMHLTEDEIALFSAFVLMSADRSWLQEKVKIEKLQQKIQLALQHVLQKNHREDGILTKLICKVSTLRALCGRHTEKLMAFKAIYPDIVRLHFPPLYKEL
In words: Gal4-RORα LBD / UAS luciferase cotransfection assay. The assay is classed as cell-based. Conditions: Gal4 chimeric cotransfection.
Experimental: (§2) The cells were treated with either DMSO or various compounds as indicated four hours after replating. Following additional 20 hour incubation, luciferase levels were assayed by one-step addition of 20 μL BriteLite (Perkin Elmer) and read using an Envision multilabel plate reader (Perkin Elmer).

The target of the next assay is T4, FXR (Homo sapiens, UniProt Q96RI1).
T4 sequence (Q96RI1 262-486 limits assumed): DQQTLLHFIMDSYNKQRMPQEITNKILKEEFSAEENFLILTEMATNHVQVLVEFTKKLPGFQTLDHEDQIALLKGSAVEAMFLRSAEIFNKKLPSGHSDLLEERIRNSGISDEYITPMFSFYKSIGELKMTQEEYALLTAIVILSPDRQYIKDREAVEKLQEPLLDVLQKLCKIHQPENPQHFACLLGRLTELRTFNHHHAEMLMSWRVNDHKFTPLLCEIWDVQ
In words: Gal4-FXR / UAS luciferase cotransfection assay. It is filed as cell-based. Particulars: Gal4 chimeric cotransfection.

For assay [2], the target named is T5, RORα (Homo sapiens, UniProt P35398).
T5 sequence (P35398 1-523): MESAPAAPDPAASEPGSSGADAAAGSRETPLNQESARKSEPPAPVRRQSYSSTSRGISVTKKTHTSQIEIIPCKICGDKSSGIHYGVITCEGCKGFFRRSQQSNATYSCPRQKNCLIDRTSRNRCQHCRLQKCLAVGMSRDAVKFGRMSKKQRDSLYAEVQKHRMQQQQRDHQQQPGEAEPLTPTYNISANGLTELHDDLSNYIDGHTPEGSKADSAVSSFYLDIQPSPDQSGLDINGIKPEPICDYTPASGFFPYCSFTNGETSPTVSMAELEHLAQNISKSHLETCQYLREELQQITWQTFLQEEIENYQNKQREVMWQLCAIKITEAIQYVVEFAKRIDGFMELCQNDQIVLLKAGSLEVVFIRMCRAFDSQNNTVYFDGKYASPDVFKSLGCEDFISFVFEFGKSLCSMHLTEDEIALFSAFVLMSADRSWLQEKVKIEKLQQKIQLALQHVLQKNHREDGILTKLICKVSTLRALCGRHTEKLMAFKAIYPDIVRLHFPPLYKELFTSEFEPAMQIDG
In words: IL-17 promoter luciferase reporter with full-length RORα. It is filed as cell-based. The source says: Since RORα and RORγ are critical regulators of IL-17 gene expression, we examined whether SR1555 would affect RORα and RORγ-dependent regulation of an IL-17 promoter driven luciferase reporter construct. HEK293 cells were transiently transfected with an IL-17 reporter, either full-length RORα or RORγ, and treated with an increasing concentration of SR1555[8]. In a dose dependent manner, SR1555 suppressed IL-17 promoter driven activity by RORγ but not RORα, further confirming that SR1555 is indeed a RORγ-specific inverse agonist (FIG. 1d). Finally, using EL4 cells, a murine thymoma which endogenously express RORα, RORγ t, and IL-17A, we examined whether SR1555 affected endogenous IL-17 gene expression. EL4 cells were treated with DMSO or SR1555 for 24 hours and analyzed for Il17a gene expression by quantitative real-time PCR.
Cotransfection assays were performed as previously described in HEK293 cells (Gal4 cotransfection assay or IL-17 luciferase reporter)[8]. […]
HEK293 cells were maintained in Dulbecco's modified Eagle's medium (DMEM) supplemented with 10% fetal bovine serum at 37° C. under 5% CO2. […] The luciferase levels were assayed following additional 20 hour incubation by one-step addition of BriteLite Plus (Perkin Elmer) and read using an Envision (Perkin Elmer). […]

In assay [3] the target is T3, RORα. In words: Competitive radioligand binding assay on RORα. Conditions: data not shown. An excerpt:
Concurrent with our characterization of SR1001, several other groups identified RORγ-specific inverse agonists. Similar to SR1001, these ligands inhibited TH17 cell development and function. […] Compounds were identified using a screening approach similar to SR1001 and a RORγ-selective inverse agonist. SR1555, was identified (FIG. 1a). Compound SR1555 is shown as compound 3 in Table 1. […] Next we examined the direct binding of SR1555 to RORα and RORγ in competitive radioligand binding assays.

The mark [4] stands for this setting: T regulatory polarizing conditions, 3 days.

Experimental for LXR: as §2

On to `O=S(=O)(c1ccccc1)N(CC(F)(F)F)c1ccc(C(O)(C(F)(F)F)C(F)(F)F)cc1` [Compound T1317], for which, at RORβ, the “binding to RORβ” value is recorded as “does in fact bind to RORβ”.
For the molecule `CC(=O)N1CCN(Cc2ccc(-c3ccc(C(O)(C(F)(F)F)C(F)(F)F)cc3)cc2)CC1` [SR1555], the “inhibition of Il17a gene expression” value in the assay with EL4 cells is recorded as “greater than 70%”. Further, the “effect on LXR activity” value on LXR is “devoid of LXR, FXR, and RORα activity”. Besides, the “expression of Foxp3+ T cells” value in the assay with T regulatory cells (5 days, FACS) was “almost two-fold increase”. For the same molecule, in the assay on T regulatory cells (setting [4]), the “gene expression of Foxp3” value is given as “effectively increased the gene expression of Foxp3” and the “gene expression of Rorγt” value is recorded as “suppressing the gene expression of Rorγt”. Besides, the “effect on transcriptional activity of RORα” value at RORα [1] is “devoid of LXR, FXR, and RORα activity”. Besides, at FXR, the “effect on transcriptional activity of FXR” value is “devoid of LXR, FXR, and RORα activity”. Besides, the “IL-17 promoter driven activity by RORα” value at RORα [2] is “not RORα”. Further, the “displacement of [3H]T0901317 from RORα” value at RORα [3] was “not RORα”.
